Laboratory results: patent publication US9480253B2, “Use of 3-(2,4,6-Trimethylphenyl)-4-neopentylcarbonyloxy-5,5-tetramethylene-delta-3-dihydrofuran-2-one for controlling psyllids” (BAYER INTELLECTUAL PROPERTY GMBH, priority 2004, dated 2016)

Assays:
Trioza erythreae = assay: Field spray test against psyllids on orange trees (Example A); type: in vivo; conditions: 144 g a.i./ha, 240 SC + 0.2% RME; for Efficacy in % Abbott 7TNAA: 540 l water per ha, 7 days after the first treatment; for Efficacy in % Abbott 7TNAB / Efficacy in % Abbott 13TNAB: two applications at interval of one week; for Efficacy in % Abbott 7TNAB: 7 days after the last treatment; for Efficacy in % Abbott 13TNAB: 13 days after the last treatment
Experimental: • Pest: Trioza erythreae • Plant: Orange
The compound of the formula (I) (240 SC) was tested at an application rate of 144 g a.i./ha+0.2% a.i. rapeseed oil methyl ester (RME) at 540 l water per ha in comparison with spirodiclofen application rate comparison.
Spraying was effected by means of a pneumatic knapsack sprayer.
The experiment was carried out using one tree per plot and three replications. In each case two applications were carried out at an interval of one week.
The activity against psyllids was determined by counting the number of live animals on 20 leaves per tree 7 days after the first treatment and 7 and 13 days after the last treatment. The efficacy was calculated with the aid of Abbott's formula.

[1] = test system: insects from the family Aleyrodidae; conditions: known from EP-A-0 528 156; cited from earlier work
[2] = test system: insects from the family Psyllidae; assay: Control of insects from the family Psyllidae, comparison with spirodiclofen; type: in vivo
[3] = known from EP-A-0 528 156; cited from earlier work
Paratrioza cockerelli = assay: Field spray test against psyllids on tomato (Example B); type: in vivo; conditions: 72 g a.i./ha, 240 SC
Experimental: • Pest: Paratrioza cockerelli • Plant: Tomato The compound of the formula (I) (240 SC) was tested at an application rate of 72 […] water application rate of 345 l ha in comparison with Leverage (48 g a.i./ha imidacloprid+33 […]). Spraying was effected by means of a manually operated knapsack sprayer. The experiment was carried out with 10-m^2 plots and three replications. In each case two applications were carried out at an interval of one week. The activity against […] determined by counting the number of live animals on 10 leaves 7 days after the first treatment and 7 and 14 days after the second treatment. The efficacy was calculated with the aid of Abbott's formula.

psyllids = conditions: under certain conditions; timing of application very limited (De Maeyer et al.); cited from earlier work

SMILES: Cc1cc(C)c(C2=C(OC(=O)CC(C)(C)C)C3(CCCC3)OC2=O)c(C)c1 [Compound of the formula (I), 3-(2,4,6-Trimethylphenyl)-4-neopentylcarbonyloxy-5,5-tetramethylene-Δ^3-dihydrofuran-2-one]
- Efficacy in % Abbott 7TNAA (Trioza erythreae): 95 % Abbott
- Efficacy in % Abbott 7TNAB (Trioza erythreae): 97.5 % Abbott
- Efficacy in % Abbott 13TNAB (Trioza erythreae): 95.2 % Abbott
- activity against insects from the family Aleyrodidae [1]: active
- effectiveness in controlling insects from the family Psyllidae relative to spirodiclofen [2]: considerably more effective than spirodiclofen
- acaricidal activity [3]: acaricidal activity
- Efficacy in % Abbott 7TNAA (Paratrioza cockerelli; 345 l water/ha, 7 days after the first treatment): 80.3 % Abbott
- Efficacy in % Abbott 7TNAB (Paratrioza cockerelli; two applications at interval of one week, 7 days after the second treatment): 84.8 % Abbott
- Efficacy in % Abbott 14TNAB (Paratrioza cockerelli; two applications at interval of one week, 14 days after the second treatment): 98.7 % Abbott

SMILES: CCC(C)(C)C(=O)OC1=C(c2ccc(Cl)cc2Cl)C(=O)OC12CCCCC2 [Spirodiclofen, reference compound]
- Efficacy in % Abbott 7TNAA (Trioza erythreae): 80.3 % Abbott
- Efficacy in % Abbott 7TNAB (Trioza erythreae): 91.5 % Abbott
- Efficacy in % Abbott 13TNAB (Trioza erythreae): 88.1 % Abbott
- ovicidal activity against psyllids (psyllids): ovicidal activity
